Results reported in patent US11160836B2, “Transgenic pig islets and uses thereof for treating diabetes” (priority 2014, dated 2021).

Legend:
isolated pig islets = test: Glucose-induced insulin secretion from isolated pig islets, static incubation with pharmacological PKC/PKA activators; assay type: cell-based; conditions: 2 h, PMA 20 nM and/or forskolin 1 μM
Method: FIG. 1 is a histogram showing the insulin secretion from adult and neonate isolated pig islets. […] Insulin secretion was measured in the incubation media and expressed as a percentage of total insulin content of each batch of islets. The numbers above the columns represent the fold increase of insulin secretion in test groups compared to 15 mM glucose alone. * p<0.05. […] Finally, insulin was quantified in recovered media and in incubated islets by radioimmuno-assay.

MIN6 cells = test: Glucose-induced insulin secretion from transfected MIN6 cells, static incubation; assay type: cell-based, murine; conditions: MIN6 cells 48 h after plasmid transfection; 2 h in 1 or 15 mM glucose; control cells 2.2
Method: FIG. 2 is a histogram showing glucose-induced insulin secretion from transfected Min6 cells incubated with 1 (G1) or 15 mM (G15) glucose. The numbers above pairs of columns represent the stimulation ratio (G15/G1) in each group. * p<0.05 indicates significant difference between test groups and controls. Values are means±SEM for n=15-21 from 7 different experiments.
To verify the effect of the transgenic proteins on insulin secretion, transfected and control MIN6 cells were challenged by an increase of glucose concentration during static incubation experiments. Insulin secretion was measured and the stimulation index i.e., the ratio between insulin secretion at high glucose and insulin secretion at low glucose, of transgenic and control cells was calculated. In brief, 2·10^5 cells were seeded in 12-well plates and cultivated for 48 h before they were transfected with one the plasmids carrying the GLP-1 (7-37) gene (GLP-1), the mutated GLP-1 (7-A8S-37) gene (GLP-1 Ser8) or the constitutively activated muscarinic receptor gene (M3). Control cells were simply exposed to Lipofectamine without any plasmidic DNA. 48 h after transfection, cells were starved then incubated for 2 h in a 1 mL Krebs-Ringer buffer containing either 1 or 15 mM glucose. Insulin secretion was measured in the incubation media and expressed as a percentage of total insulin content of the cells.

adult pig islets = test: Dynamic islet perifusion, glucose-induced insulin secretion of virus-treated adult pig islets; assay type: cell-based; conditions: adenoviral vector MOI 200, 48 h, perifused G1 then 30 min G15
Method: FIG. 4 is a graph showing the insulin secretion of isolated adult pig islets exposed to 200 MOI viral expression vectors carrying sequences coding for GLP-1 (GLP-1 Ser8), activated muscarinic receptor (M3R) or both (GLP-1+M3R) during 48 hours. Batches of 600 islets were perifused in krebs medium containing 1 mM glucose (G1) then 15 mM glucose (G15) as indicated on top of the figure. Insulin secretion was then measured in the effluent fractions. Values are means±SEM for n=3-4 from 4 different preparations.
The effect of transgenic PKA and PKC activation on glucose-induced insulin secretion was also tested during dynamic islet perifusion experiments. Control and virus-treated adult islets were placed in perifusion chambers sealed with 0.2 μm filters. Islets were first perifused with 1 mM glucose (G1) krebs medium during 30 minutes for equilibrium then during 10 minutes in G1 with media collection every 2 minutes followed by 30 minutes stimulation with G15.

Molecule	fold increase of insulin secretion compared to 15 mM glucose alone (isolated pig islets; islets from adult pigs) [fold]	fold increase of insulin secretion compared to 15 mM glucose alone (isolated pig islets; islets from neonate pigs)	stimulation index (insulin secretion G15/G1) (MIN6 cells)	effect on acute glucose-induced insulin secretion during perifusion, in words (adult pig islets)
CCCCCCCCCCCCCC(=O)O[C@@H]1[C@@H](C)[C@@]2(O)[C@@H](C=C(CO)C[C@]3(O)C(=O)C(C)=C[C@@H]23)[C@@H]2C(C)(C)[C@]12OC(C)=O [PMA, phorbol myristate acetate]	2	up to 8 fold	–	–
GLP-1	–	–	2.6	virtually no effect
